Laboratory results: patent US7468375B2 (Pfizer Inc., priority 2004, dated 2008)
Like-named read-outs stand apart in the source and are kept apart here.

What was measured:
[1] = tested on: RF strain of HIV-1 in CEM-SS cells; test: HIV-1 cell protection assay (XTT dye reduction); format: cell-based
Method in brief: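 CEM-SS cells infected with HIV-1 RF (moi 0.025–0.819) or mock-infected, 2×10^4 cells/well with half-log compound dilutions for six days. Viability by XTT/PMS reduction (4 h), absorbance 450 nm, as % of uninfected untreated cells. Therapeutic index = CC50/EC50.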

[2] = biological target: T1, Full-length wild type HIV-1 integrase (SF1) (Human immunodeficiency virus type 1 group M subtype B, UniProt P04585); test: Integrase strand-transfer scintillation proximity assay; format: biochemical; conditions: 50 min at 37° C., 246 nM integrase, 50 nM host DNA
T1 construct: made in house; host or cells: E. coli BL21 (DE3)
Method in brief: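 Recombinant full-length wild-type HIV-1 integrase (aa 1-288), E. coli-expressed, tested on biotinylated pre-processed U5 LTR viral ds-DNA with CA overhang bound to streptavidin SPA beads. [3H]-thymidine-labelled host ds-DNA serves as target; strand transfer read by scintillation proximity. A 3′ di-deoxy viral DNA control checks non-specific binding.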

[3] = Human immunodeficiency virus 1, CEM-SS, 144 h, HIV-1 RF, CEM-SS cells, XTT dye reduction, six days, read-out: EC50
[4] = strand transfer, read-out: IC50

Row | Compound | EC50 [1, 3] [nM] | IC50 [2, 4] [nM] | IC50 ([2]; IC50, strand transfer) [nM] | EC50 ([1]; HIV-1 RF, CEM-SS cells, XTT dye reduction, six days, read-out: EC50) [nM] | EC50 ([1]; Human immunodeficiency virus 1, CEM-SS, 144 h) [nM]
1 | NC(=O)CNCc1cn(Cc2ccc(F)cc2F)c2cnc(C(=O)NO)cc12 [Example 10, 3-{[(2-Amino-2-oxoethyl)amino]methyl}-1-(2,4-difluorobenzyl)-N-hydroxy-1H-pyrrolo[2,3-c]pyridine-5-carboxamide] | 18 | 84 |  |  | 
2 | O=C(NO)c1cc2c(COC[C@H](O)CO)cn(Cc3ccc(F)cc3F)c2cn1 [Example 107, 1-(2,4-Difluorobenzyl)-3-({[(2S)-2,3-dihydroxypropyl]oxy}methyl)-hydroxy-1H-pyrrolo[2,3-c]pyridine-5-carboxamide] | 32.2 |  | 3.4 |  | 
3 | CC(C)CN(O)C(=O)c1cc2ccn(Cc3ccc(F)cc3)c2cn1 [Example 29, 1-(4-Fluorobenzyl)-N-hydroxy-N-isobutyl-1H-pyrrolo[2,3-c]pyridine-5-carboxamide] | 1400 | 1700 |  |  | 
4 | O=C1CN(Cc2cn(Cc3ccc(F)cc3)c3cnc(C(=O)NO)cc23)CCN1 [Example 15, 1-(4-Fluorobenzyl)-N-hydroxy-3-[(3-oxopiperazin-1-yl)methyl]-1 pyrrolo[2,3-c]pyridine-5-carboxamide] | 11 | 41 |  |  | 
5 | CN(O)C(=O)c1cc2ncn(Cc3ccc(F)cc3)c2cn1 [Example 23, 3-(4-Fluorobenzyl)-N-hydroxy-N-methyl-3-H-imidazo[4,5-c]pyridine-6-carboxamide] | 780 | 1300 |  |  | 
6 | O=C(NO)c1cc2c(CNCCOCCO)cn(Cc3ccc(F)cc3F)c2cn1 [Example 58, 1-(2,4-Difluorobenzyl)-N-hydroxy-3-({[2-(2-hydroxyethoxy)ethyl]amino}methyl)-1H-pyrrolo[2,3-c]pyridine-5-carboxamide] | 100 | 585 |  |  | 
7 | CC(O)CNCc1cn(Cc2ccc(F)cc2F)c2cnc(C(=O)NO)cc12 (centres unmarked) [Example 65, 1-(2,4-Difluorobenzyl)-N-hydroxy-3-{[(2-hydroxypropyl)amino]methyl}-1H-pyrrolo[2,3-c]pyridine-5-carboxamide] | 14 | 625 |  |  | 
8 | CCCN(O)C(=O)c1cc2ccn(Cc3ccc(F)cc3)c2cn1 [Example 28, 1-(4-Fluorobenzyl)-N-hydroxy-N-propyl-1H-pyrrolo[2,3-c]pyridine-5-carboxamide] | 350 | 628 |  |  | 
9 | CC(C)N(O)C(=O)c1cc2ccn(Cc3ccc(F)cc3)c2cn1 [Example 27, 1-(4-Fluorobenzyl)-N-hydroxy-N-isopropyl-1H-pyrrolo[2,3-c]pyridine-5-carboxamide] | 3500 | 8000 |  |  | 
10 | CN(O)C(=O)c1cc2c(CN3CC[C@@H]4CNC(=O)[C@@H]4C3)cn(Cc3ccc(F)cc3F)c2cn1 (relative stereo) [Example 112] | 597 | 62 |  |  | 
11 | CN(O)C(=O)c1cc2c(CN3CC[C@H]4CNC(=O)[C@H]4C3)cn(Cc3ccc(F)cc3F)c2cn1 [Example 113] | 437 | 40 |  |  | 
12 | O=C(NO)c1cc2c(CNCCO)cn(Cc3ccc(F)cc3F)c2cn1 [Example 3] |  | 195 |  | 160 | 
13 | Cc1cnc(CNCc2cn(Cc3ccc(F)cc3F)c3cnc(C(=O)NO)cc23)cn1 [Example 66, 1-(2,4-Difluorobenzyl)-N-hydroxy-3-({[(5-methylpyrazin-2-yl)methyl]amino}methyl)-1H-pyrrolo[2,3-c]pyridine-5-carboxamide] | 11 | 357 |  |  | 
14 | O=C(NO)c1cc2c(CN[C@@H](CO)c3ccccc3)cn(Cc3ccc(F)cc3F)c2cn1 [Example 59, 1-(2,4-Difluorobenzyl)-N-hydroxy-3-({[(1R)-2-hydroxy-1-phenylethyl]amino}methyl)-1H-pyrrolo[2,3-c]pyridine-5-carboxamide] | 18 | 221 |  |  | 
15 | CC1(C)OC[C@H](COCc2cn(Cc3ccc(F)cc3)c3cnc(C(=O)NO)cc23)O1 [Example 111, 3-({[(4S)-2,2-dimethyl-1,3-dioxolan-4-yl]methoxy}methyl)-1-(4-fluorobenzyl)-N-hydroxy-1H-pyrrolo[2,3-c]pyridine-5-carboxamide] | 77.4 | 20 |  |  | 
16 | CN1CCCC1CCNCc1cn(Cc2ccc(F)cc2F)c2cnc(C(=O)NO)cc12 (centres unmarked) [Example 51, 1-(2,4-Difluorobenzyl)-N-hydroxy-3-({[2-(1-methylpyrrolidin-2-yl)ethyl]amino}methyl)-1H-pyrrolo[2,3-c]pyridine-5-carboxamide] | 230 | 752 |  |  | 

Row | Compound | EC50 [1, 3] [nM] | IC50 [2, 4] [nM] | IC50 ([2]; IC50, strand transfer) [nM] | EC50 ([1]; HIV-1 RF, CEM-SS cells, XTT dye reduction, six days, read-out: EC50) [nM] | EC50 ([1]; Human immunodeficiency virus 1, CEM-SS, 144 h) [nM]
17 | CONC(=O)c1cc2c(CN3CCN(C)CC3)cn(Cc3ccc(F)cc3F)c2cn1 [Example 37, 1-(2,4-Difluorobenzyl)-N-methoxy-3-[(4-methylpiperazin-1-yl)methyl]-1H-pyrrolo[2,3-c]pyridine-5-carboxamide] | 46 | 528 |  |  | 
18 | CN(Cc1cccnc1)Cc1cn(Cc2ccc(F)cc2F)c2cnc(C(=O)NO)cc12 [Example 8, 1-(2,4-Difluorobenzyl)-N-hydroxy-3-{[methyl(pyridin-3-ylmethyl)amino]methyl}-1H-pyrrolo[2,3-c]pyridine-5-carboxamide] | 52 | 45 |  |  | 
19 | O=C(NO)c1cc2c(CNCc3ccc(C(F)(F)F)nc3)cn(Cc3ccc(F)cc3F)c2cn1 [Example 88, 1-(2,4-Difluorobenzyl)-N-hydroxy-3-[({[6-(trifluoromethyl)pyridin-3-yl]methyl}amino)methyl]-1H-pyrrolo[2,3-c]pyridine-5-carboxamide] | 16 | 238 |  |  | 
20 | CN1CCN(Cc2cn(Cc3ccc(F)cc3)c3cnc(C(=O)N(C)O)cc23)CC1 [Example 14, 1-(4-Fluorobenzyl)-AN-hydroxy-N-methyl-3-[(4-methylpiperazin-1-yl)methyl]-1H-pyrrolo[2,3-c]pyridine-5-carboxamide] | 140 |  | 540 |  | 
21 | COCc1c(C(=O)NO)ncc2c1ccn2Cc1ccc(F)cc1F [Example 19, 1-(2,4-Difluorobenzyl)-N-hydroxy-4-(methoxymethyl)-1-H-pyrrolo[2,3-c]pyridine-5-carboxamide] | 48 | 218 |  |  | 
22 | O=C(NO)c1cc2c(CNCCCN3CCCC3=O)cn(Cc3ccc(F)cc3F)c2cn1 [Example 68, 1-(2,4-Difluorobenzyl)-N-hydroxy-3-({[3-(2-oxopyrrolidin-1-yl)propyl]amino}methyl)-1H-pyrrolo[2,3-c]pyridine-5-carboxamide] | 100 | 549 |  |  | 
23 | O=C(NO)c1cc2c(CN3CC[C@@H]4C(=O)NC[C@@H]4C3)cn(Cc3ccc(F)cc3F)c2cn1 (racemic) [Example 16, rac 1-(2,4-difluorobenzyl)-N-hydroxy-3-{[(3aR*,7aS*)-1-oxooctahydro-5H-pyrrolo[3,4-c]pyridin-5-yl]methyl}-1H-pyrrolo[2,3-c]pyridine-5-carboxamide] | 12 | 108 |  |  | 
24 | O=C(NO)c1cc2c(CNCC3CCCO3)cn(Cc3ccc(F)cc3F)c2cn1 (centres unmarked) [Example 60, 1-(2,4-Difluorobenzyl)-N-hydroxy-3-{[(tetrahydrofuran-2-ylmethyl)amino]methyl}-1H-pyrrolo[2,3-c]pyridine-5-carboxamide] | 12 | 521 |  |  | 
25 | O=C(NO)c1cc2c(CN3CCS(=O)(=O)CC3)cn(Cc3ccc(F)cc3F)c2cn1 [Example 9, 1-(2,4-Difluorobenzyl)-3-[(1,1-dioxidothiomorpholin-4-yl)methyl]-N-hydroxy-1H-pyrrolo[2,3-c]pyridine-5-carboxamide] | 7.4 | 20 |  |  | 
26 | O=C(NO)c1cc2ccn(Cc3ccc(F)cc3F)c2cn1 [Example 1, 1-(2,4-Difluorobenzyl)-N-hydroxy-1H-pyrrolo[2,3-c]pyridine-5-carboxamide] | 7.95 | 84 |  |  | 
27 | O=C(NO)c1cc2c(CN[C@@H]3C[C@H]4CC[C@@H]3C4)cn(Cc3ccc(F)cc3F)c2cn1 [Example 74, 3-{[(1R,2R,4S)-Bicyclo[2.2.1]hept-2-ylamino]methyl}-1-(2,4-difluorobenzyl)-N-hydroxy-1H-pyrrolo[2,3-c]pyridine-5-carboxamide] | 32 | 357 |  |  | 
28 | O=C(NO)c1cc2c(CNC3CCOCC3)cn(Cc3ccc(F)cc3F)c2cn1 [Example 91, 1-(2,4-Difluorobenzyl)-N-hydroxy-3-[(tetrahydro-2H-pyran-4-ylamino)methyl]-1H-pyrrolo[2,3-c]pyridine-5-carboxamide] | 28 | 519 |  |  | 
29 | O=C(NO)c1cc2c(CNC3CC3c3ccccc3)cn(Cc3ccc(F)cc3F)c2cn1 (racemic) [Example 75, rac-1-(2,4-Difluorobenzyl)-N-hydroxy-3-({[(1S,2R)-2-phenylcyclopropyl]amino}methyl)-1H-pyrrolo[2,3-c]pyridine-5-carboxamide] | 14 | 382 |  |  | 
30 | CN(O)C(=O)c1cc2c(CN3[C@H]4CC[C@@H]3C(=O)NC4)cn(Cc3ccc(F)cc3)c2cn1 [Example 34, (4-Fluorobenzyl)-N-hydroxy-N-methyl-3-{[(1R,5S)-2-oxo-3,8-diazabicyclo[3.2.1]oct-8-yl]methyl}-1H-pyrrolo[2,3-c]pyridine-5-carboxamide] |  | 490 |  |  | 170
31 | O=C(NO)c1cc2c(CNCc3ccc(OC(F)F)cc3)cn(Cc3ccc(F)cc3F)c2cn1 [Example 94, 1-(2,4-Difluorobenzyl)-3-({[4-(difluoromethoxy)benzyl]amino}methyl)-N-hydroxy-1H-pyrrolo[2,3-c]pyridine-5-carboxamide] | 26 | 288 |  |  | 
